Reference: patent US8227240B2, “Systems for screening pharmaceutical chemicals” (The Washington University, priority 2001, dated 2012)

What was measured:
[1] = target: MMPs; settings: purified system; cited from earlier work
[2] = system: cardiac fibroblasts; assay: Mechanical tests of tissue model rings cultured with MMP inhibitor; type: cell-based; settings: 50 μM GM6001 for 6 days
Procedure: The tissue models made using cardiac fibroblasts are incubated with 50 .μM GM6001 for 6 days. The tissue culture medium is replenished every other day with fresh medium containing GM6001. The tissue model rings were subjected to mechanical tests as described above.

[3] = system: animals; settings: in vivo; cited from earlier work

In the case of CNC(=O)[C@H](Cc1c[nH]c2ccccc12)NC(=O)[C@@H](CC(=O)NO)CC(C)C [GM6001, N-[(2R)-2-(Hydroxamid-ocarbonylmethyl)-4-methylpentanoyl]-L-tryptophan methylamide], the “Ki values for different MMPs” value [1] is listed as “around nmol/l”, the “mechanical properties of tissue model rings compared to controls” value [2] is listed as “significant reduction” and the “concentration of inhibitor at which effects in animals can be observed” value [3] is listed as “sub mmol/l”.
